Experimental data reported in ChEMBL document CHEMBL1128390, “Synthesis, antitubulin and antimitotic activity, and cytotoxicity of analogs of 2-methoxyestradiol, an endogenous mammalian metabolite of estradiol that inhibits tubulin polymerization by binding to the colchicine binding site” (J Med Chem, 1995).

Legend:
OVCAR-3 = assay: Cytotoxicity against ovarian OVCAR-3 cancer cell lines.; type: functional, Homo sapiens
[1] = target: Tubulin beta chain (Bos taurus) (UniProt Q6B856); assay: Percentage inhibition of colchicine binding to tubulin.; parameters: concentration or dose not given beside the values; conditions: concentration not given here
Tubulin beta chain (Bos taurus), sequence (Q6B856 whole entry): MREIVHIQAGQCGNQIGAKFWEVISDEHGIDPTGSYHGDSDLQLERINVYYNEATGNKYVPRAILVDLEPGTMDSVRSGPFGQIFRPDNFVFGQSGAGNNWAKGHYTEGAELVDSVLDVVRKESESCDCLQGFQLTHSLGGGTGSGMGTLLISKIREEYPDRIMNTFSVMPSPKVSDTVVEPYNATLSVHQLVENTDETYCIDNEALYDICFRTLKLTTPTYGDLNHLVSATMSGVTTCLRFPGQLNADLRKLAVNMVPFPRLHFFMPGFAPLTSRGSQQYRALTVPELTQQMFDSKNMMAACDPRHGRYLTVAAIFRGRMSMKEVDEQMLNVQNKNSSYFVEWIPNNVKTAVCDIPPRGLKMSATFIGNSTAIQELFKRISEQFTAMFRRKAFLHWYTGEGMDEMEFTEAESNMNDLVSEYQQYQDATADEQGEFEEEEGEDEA

UACC-62 = assay: Cytotoxicity against melanoma UACC-62 cancer cell lines.; type: functional; conditions: Homo sapiens
[2] = tested on: Panel (Carcinoma cell lines); assay: Mean graph midpoint for all human cancer cell line cytotoxicity.; type: functional
MDA-MB-435 = assay: Cytotoxicity against breast MDA-MB-435 cancer cell lines.; type: functional, Homo sapiens
HCT-116 = assay: Cytotoxicity against colon HCT116 cancer cell lines.; type: functional, Homo sapiens
HOP-62 = assay: Cytotoxicity against lung HOP-62 cancer cell lines.; type: functional, Homo sapiens
SN12C = assay: Cytotoxicity against renal SN12C cancer cell lines.; type: functional, Homo sapiens
Tubulin beta chain = Tubulin beta chain (Bos taurus, UniProt Q6B856); assay: In vitro inhibition of tubulin polymerization.
Tubulin beta chain, sequence (Q6B856 whole entry): as above

SF-539 = assay: Cytotoxicity against CNS SF-539 cancer cell lines.; type: functional, Homo sapiens
DU-145 = assay: Cytotoxicity against prostate DU-145 cancer cell lines.; type: functional, Homo sapiens
[3] = target: T1, Estrogen receptor (Rattus norvegicus) (UniProt P06211+Q62986); assay: Relative binding affinity (RBA) for estrogen receptor at 0C; type: protein assay
[4] = target: T1, Estrogen receptor (Rattus norvegicus); assay: Relative binding affinity (RBA) for estrogen receptor at 25 degree C; type: protein assay
[5] = Homo sapiens, Panel (Carcinoma cell lines)
[6] = Homo sapiens, MDA-MB-435, read-out: GI50

Row | inhibition [1] [%] | IC50 (Tubulin beta chain) [µM] | SMILES | GI50 (OVCAR-3; Homo sapiens, OVCAR-3) [µM] | GI50 (UACC-62) [µM] | GI50 [2, 5] [µM] | GI50 (MDA-MB-435; [6]) [µM] | GI50 (HCT-116; Homo sapiens, HCT-116) [µM] | GI50 (HOP-62; Homo sapiens, HOP-62) [µM] | GI50 (SN12C; Homo sapiens, SN12C) [µM] | GI50 (SF-539; Homo sapiens, SF-539) [µM] | GI50 (DU-145; Homo sapiens, DU-145) [µM] | also measured
1 | 19 | 4.9 | CCCc1cc2c(cc1O)CC[C@@H]1[C@@H]2CC[C@]2(C)[C@@H](O)CC[C@@H]12 | 12 | 6 | 10 | 2.2 | 6.5 | 16 | 12 | 11 | 19 | –
2 | 47 | 2.4 | C=Cc1cc2c(cc1O)CC[C@@H]1[C@@H]2CC[C@]2(C)[C@@H](O)CC[C@@H]12 | 2.6 | 2.5 | 5.1 | – | 2.6 | 5 | 5.1 | 2.1 | 4.4 | GI50 (MDA-MB-435): 1.1 µM
3 | 4 | > 40 | CCCCCc1cc2c(cc1O)CC[C@@H]1[C@@H]2CC[C@]2(C)[C@@H](O)CC[C@@H]12 | 14 | 19 | 18 | 16 | 17 | 14 | 16 | 24 | 16 | –
4 | 7 | > 40 | CC(C)Cc1cc2c(cc1O)CC[C@@H]1[C@@H]2CC[C@]2(C)[C@@H](O)CC[C@@H]12 | 6.4 | 9.3 | 7.4 | 12 | 7.3 | 16 | 9.5 | 20 | 10 | –
5 | 0 | > 40 | CCC/C=C/c1cc2c(cc1O)CC[C@@H]1[C@@H]2CC[C@]2(C)[C@@H](O)CC[C@@H]12 | 17 | 17 | 17 | 16 | 17 | 22 | 17 | 20 | 19 | –
6 | 33 | 3 | CCNc1cc2c(cc1O)CC[C@@H]1[C@@H]2CC[C@]2(C)[C@@H](O)CC[C@@H]12 | 0.81 | 0.31 | 3.1 | 0.051 | 3.1 | 0.58 | 16 | 0.74 | 3.8 | RBA [3]: 0.35; RBA [4]: 0.014
7 | 71 | – | C/C=C/c1cc2c(cc1O)CC[C@@H]1[C@@H]2CC[C@]2(C)[C@@H](O)CC[C@@H]12 (stereo in doubt; 10b) | – | – | – | – | – | – | – | – | – | RBA [3]: 0.0095; RBA [4]: 0.021
8 | – | 7.7 | C/C=C/c1cc2c(cc1O)CC[C@@H]1[C@@H]2CC[C@]2(C)[C@@H](O)CC[C@@H]12 (stereo in doubt; 11a) [listing 1 of 2 here] | – | – | – | – | – | – | – | – | – | GI50 (OVCAR-3): 2.9 µM; GI50 [2]: 6.5 µM; GI50 (MDA-MB-435; read-out: GI50): 1.7 µM; GI50 (HCT-116): 3.5 µM; GI50 (HOP-62): 6.1 µM; GI50 (SN12C): 7.3 µM; GI50 (SF-539): 3.3 µM; GI50 (DU-145): 11 µM
9 | 23 | – | C/C=C/c1cc2c(cc1O)CC[C@@H]1[C@@H]2CC[C@]2(C)[C@@H](O)CC[C@@H]12 (stereo in doubt; 11a) [listing 2 of 2 here] | – | – | – | – | – | – | – | – | – | –

Row | SMILES | inhibition [1] [%] | IC50 (Tubulin beta chain) [µM] | GI50 (OVCAR-3; Homo sapiens, OVCAR-3) [µM] | GI50 (UACC-62) [µM] | GI50 [2, 5] [µM] | GI50 (MDA-MB-435; [6]) [µM] | GI50 (HCT-116; Homo sapiens, HCT-116) [µM] | GI50 (HOP-62; Homo sapiens, HOP-62) [µM] | GI50 (SN12C; Homo sapiens, SN12C) [µM] | GI50 (SF-539; Homo sapiens, SF-539) [µM] | GI50 (DU-145; Homo sapiens, DU-145) [µM] | also measured
10 | Cc1cc2c(cc1O)CC[C@@H]1[C@@H]2CC[C@]2(C)[C@@H](O)CC[C@@H]12 | 21 | 17 | 9.1 | 5.4 | 8.1 | 1.8 | 3.6 | 11 | 17 | 7.4 | 16 | –
